Columns and labels:
[1] = test system: Vero cell (monkey kidney cell); assay: Cytotoxic activity, XTT method; format: cell-based; settings: Primates, 96 h, Vero cells, cultured 4 days, read-out: 50% cell growth inhibitory concentration (IC50)
[2] = test system: rhino virus typeII strain; assay: Anti-rhino activity, plaque inhibition in HeLa cells; format: cell-based; settings: 72 h, plaque number, 30 μg/ml of compound, 3 days at 33° C., read-out: Inhibition percent (%)

SMILES	IC50 [1]	inhibition at 30 µg/mL [2]
NC(=O)c1nccnc1O [No. 1, 3-hydroxy-2-pyrazinecarboxamide]	≥ 250 µg/mL	
CC(=O)NC(=O)c1nccnc1O [No. 3, N^2-acetyl-3-hydroxy-2-pyrazinecarboxamide]		47.2%

Reference: patent USRE43748E1, “Nitrogen-containing heterocyclic carboxamide derivatives or salts thereof and antiviral agents comprising the same” (priority 1998, dated 2012)
